The record followed here is patent publication US20100168112A1, “2-Substituted and 4-substituted aryl nitrone compounds” (RENOVIS, INC., priority 2004, published 2010).

The structures appear in SMILES notation. Read-outs that look alike come from different tables or passages of the source. A value given as a limit tells only on which side of the number the result lay.

The nature of data set [1]: Solubility measurement at pH 7.4. The class given is physicochemical. The conditions noted are these: aqueous buffer, thermodynamic from solid, phosphate buffer pH 7.4, room temperature.
The nature of data set [2]: DPPH free radical-scavenging/antioxidant assay. The class given is biochemical. The conditions noted are these: 50 μM DPPH in 80% methanol; 24 h time point; read-out: EC50 (concentration at which a compound reduces by 50% the peak absorbance of DPPH at 520 nm). A digest of the protocol: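 Compounds diluted 100-fold from DMSO stocks into 50 μM DPPH in 80% methanol; absorbance at 520 nm followed kinetically to steady state, with the 24 h reading used. EC50 interpolated from OD520 versus concentration; Trolox, BHA, PBN and S-PBN as positive controls, DMSO as vehicle.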
(Loss of DPPH colour is used to gauge radical scavenging.)

Data set [3] can be described thus: Pharmacokinetic evaluation following intravenous and oral administration in rats. In kind it is in vivo. The conditions noted are these: male, Sprague-Dawley; for Cmax / Tmax / bioavailability: 5 mg/kg; for Cmax: rat plasma; for Cmax / Tmax: oral gavage, 2 mg/mL at 2.5 mL/kg; for clearance / Vd / Tmax / bioavailability / half-life: plasma, rat; for clearance / Vd / half-life: 1 mg/kg; for clearance / Vd: intravenous administration, 1 mg/mL at 1.0 mL/kg; for clearance: read-out: CI (clearance) (converted); for Vd: read-out: Vd (volume of distribution); for bioavailability: po 2 mg/mL at 2.5 mL/kg vs iv 1 mg/mL at 1.0 mL/kg, dose-normalized, read-out: F (%) oral bioavailability; for half-life: intravenous, read-out: T1/2 elimination half life (converted). The method in brief: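 Male Sprague-Dawley rats, fasted, dosed iv (1 mg/mL formulation, 1.0 mL/kg, jugular or tail vein) or by oral gavage (2 mg/mL suspension, 2.5 mL/kg). Plasma sampled from 2 min to 480 min, some to 24 h, and quantified by LC-MS/MS (MRM). Parameters from noncompartmental analysis.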

Data set [4] in a line: Microsomal stability in rat liver microsomes. The conditions noted are these: rat liver microsomes 0.5 mg/ml, 1 mM NADPH, ~500 ng/ml compound, 37° C. In kind it is in vitro ADME. How it is done:
Frozen Sprague-Dawley rat liver microsomes (RLM) were thawed on ice and gently mixed before use. The final reaction mixture consisted of a nitrone compound of this invention (at ˜500 ng/ml), 1 mM NADPH, and 0.5 mg/ml of RLM protein in 0.1 M PBS (pH7.4), with organic solvent concentration not exceeding 1% (v/v). Per set of incubations, a positive control compound was included. The mixture was first pre-incubated 3 to 5 minutes at 37° C. without NADPH, and the reaction was then initialized by the addition of NADPH and incubated at 37° C. for up to 30 minutes. An aliquot of the reaction mixture was sampled at the initiation of the reaction and at designated time after reaction started. The drawn samples were quenched with acetonitrile, diluted with mobile phase to ensure the detection of test article in the linear range, and analyzed by LC/MS/MS. Half-life or percentage of remaining nitrone compound was calculated using standard methods. A similar method, or a slight variation of it, was used to test the stability of nitrones in human liver microsomes (HLM).
(In general: Liver microsomes are vesicles of endoplasmic reticulum, rich in cytochrome P450 enzymes.)

Data set [5] is described as follows: Microsomal stability in human liver microsomes. The class given is in vitro ADME. The conditions noted are these: NADPH, 37° C. A digest of the protocol: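 Compound (~500 ng/ml) incubated at 37°C for up to 30 min with 0.5 mg/ml microsomal protein and 1 mM NADPH in 0.1 M PBS pH7.4, after 3–5 min preincubation without NADPH. Sprague-Dawley rat or human microsomes; acetonitrile-quenched timepoints analysed by LC/MS/MS for half-life or percent remaining.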

The test system of another data set is 1K1C rats. Put plainly: Kidney ischemia-reperfusion injury, one-kidney one-clip (1K1C) model, fractional excretion of sodium. The class given is in vivo. The conditions noted are these: mean ± SEM. How it is done: Rats were individually housed in a modified cage that was equipped with a raised mesh bottom to separate the fecal product from urine. Before the test, all animals were withheld from food and water overnight. In the morning of the test, normal saline (i.e., 0.9% sodium chloride) was given via oral gavage at […] (Lipschitz, W. L. Hadidian, Z. & Kerpcar, A.: Bioassay of diuretics., J. Pharmacol. Exp. Ther., 79: 97-110, 1943). Samples of blood and urine were collected (standard procedures) at time points (1 and/or 5 hrs after fluid intake) from animals, centrifuged, and kept at 4 degrees until analysis for factors that reflect renal functions. Sodium and creatinine levels were determined by Quality Clinical Labs, Inc. (Mountain View, Calif.). Sodium concentrations were determined by ion selective electrode (standard procedures). Creatinine levels were determined by the alkaline picrated (Jaffe) reaction as described (Liobat-Estelles, M., Sevillano-Cabeja, A. & Campines-Falco, P.: Kinetic chemometric studies of the determination of creatinine using the Jaffe reaction. Part I: kinetics of the reaction; analytical conclusion. Analyst, 11: 597-602, 1989). Fractional excretion of sodium (FENa+), a parameter for ion-handling by the kidney, was calculated, using the following equation: =UNa×Pcr/PNa×Ucr, where UNa is the concentration of sodium in urine; Pcr is the plasma concentration of creatinine; PNa is the […]; and Ucr is the concentration of creatinine in the urine.
After the data for the calculation of basal levels of FENa+ was obtained (Table 16), rats were anesthetized with pentobarbital (65 mg/kg, i.p.). The abdominal region was shaved with a safety razor and sterilized with povidone iodine solution. A midline incision was made and the right kidney was exposed. The right renal pedicle and right urether were both ligated twice with 4-0 sutures and cut between the ligations. The right kidney was then removed. 7 days later, these rats, after another overnight food-water deprivation, were randomly assigned into 3 groups and orally given either Compound 62 (50 mg/kg, at the volume of 1 ml/kg,p.o.) or its vehicle (i.e., 96% of 0.5% CMC and 4 of 20% Tween 80, at the volume of 1 ml/kg, p.o.) 1 hr before kidney ischemia was produced. Positive controls were performed using quercetin (30 mg/kg, i.p.) given 2 hrs before ischemia (Kahraman, A., Erkasap, N., Serteser, M. & Koken, T.: Protective effect of quercetin on renal ischemia/reperfusion injury in rats. J. Nephrol., 16: 219-224, 2003). Animals were then anesthetized and had their left kidneys exposed after opening of their abdominal cavities. A non-traumatic vascular clamp was applied to the left renal pedicle (the ischemia phase), which was released 45 min later (the reperfusion phase). Lipschitz test was then conducted to measure ion-handling capabilities. Normal saline was orally administered at […] as soon as the vascular clamp was released. 60- and 300-min after reperfusion, plasma and urine samples were obtained.

The mark [6] stands for this setting: 1K1C rats, Compound 62 50 mg/kg p.o. 1 hr before ischemia, quercetin 30 mg/kg i.p. 2 hrs before, 45 min ischemia.

One may read the Cmax as the highest concentration seen after dosing. A word on the Tmax: it is the time at which the peak concentration occurs. By bioavailability is commonly meant the share of a dose that reaches the circulation, judged against a reference dose that is usually intravenous. On to `CC(C)(C)/[N+]([O-])=C/c1ccccc1S(=O)(=O)N1CCCCC1` [Compound 33, N-tert-Butyl-C-[2-(piperidine-1-sulfonyl)phenyl]nitrone], for which the solubility in data set [1] (read-out: Solubility @ pH 7.4) was > 3.33 mM. Further, the solubility in data set [1] (read-out: Solubility @ pH 7.4 (μg/mL)) was > 1080 µg/mL. Besides, the EC50 in data set [2] is > 1000 µM. Also, in data set [3], the Cmax is 10 ng/mL, the clearance is 36.2 mL/min/kg, the Vd turned out to be 1.66 L/kg and the Tmax turned out to be 4.98 min. Also, in data set [3], the bioavailability was determined as 0.1% and the half-life is 32.4 min. In addition, in data set [4], the “% of Nitrone Remaining at 30 min (Rat)” value stood at 0.3%.
With `CC(C)S(=O)(=O)c1ccc(/C=[N+](\[O-])C(C)(C)C)c(S(=O)(=O)C(C)C)c1` [Compound 65, N-tert-Butyl-C-(2,4-bis-2-propanesulfonylphenyl)nitrone], the “% of Nitrone Remaining at 30 min (Human)” value in data set [5] was 94%. Besides, the EC50 in data set [2] lay within 500 to 1000 µM. Further, in data set [3], the peak level (Cmax) was 339 ng/mL, the clearance is 31.5 mL/min/kg, the Vd was found to be 0.98 L/kg and the Tmax came to 14.4 min. Besides, in data set [3], the bioavailability turned out to be 13.7% and the half-life is 21 min. Further, in data set [4], the “% of Nitrone Remaining at 30 min (Rat)” value is reported as 78%.
As for `O=c1c(O)c(-c2ccc(O)c(O)c2)oc2cc(O)cc(O)c12` [Quercetin, quercetin, reference compound], in the data set on 1K1C rats (setting [6]), the “1-hr post-ischemic FENa+ (%)” value turned out to be 0.54 ± 0.02 % and the “5-hr post-ischemic FENa+ (%)” value came to 5.23 ± 4.43%. In the data set on 1K1C rats (rats before 1K1C modeling, group baseline), the “FENa+ (%) pre-surgery (basal) levels” value was determined as 1.60 ± 0.15%.
